Source: ChEMBL document CHEMBL5390201, “The Natural Alkaloid (-)-N-Hydroxyapiosporamide Suppresses Colorectal Tumor Progression as an NF-κB Pathway Inhibitor by Targeting the TAK1-TRAF6 Complex” (J Nat Prod, 2023)
The source made the active and inactive calls. The rule behind the calls is not given here.

Columns and labels:
HT-29 [1] = assay: Induction of apoptosis in human HT-29 cells assessed as late apoptotic cells at 5 uM preincubated with Z-VAD-FMK for 1 hr followed by compound addition and measured after 24 hrs by Annexin V-FITC/PI staining based flow cytometric analysis (reference value: 7.01 %); type: functional
[2] = target: T1, Nuclear factor NF-kappa-B complex (Homo sapiens) (UniProt Q00653+P19838+Q04206); assay: Inhibition of TNF-alpha induced NFkappaB activation in human HT-29 cells assessed as inhibition of IL-8 production at 2 uM pretreated for 24 hrs followed by TNFalpha stimulation for 4 hrs by ELISA; type: cell-based; settings: time 28.0 hrs
HCT-116 [3] = assay: Induction of apoptosis in human HCT-116 cells assessed as early apoptotic cells at 10 uM incubated for 24 hrs by Annexin V-FITC/PI staining based flow cytometric analysis (reference value: 7.22 %); type: functional
Mus musculus [4] = assay: Anti-inflammatory activity in AOM/DSS-induced BALB/c mouse model inflammatory bowel disease assessed as reduction in DAI score at 5 to 10 mg/kg, ip pretreated with AOM for 7 days further replaced with DSS for 7 days and repeated for 2 times followed by every 2 days compound treatment for […] starting from day 50 and measured once a week; type: functional, organism-based; settings: dose 5-10 mg/kg, time 21.0 day
Mus musculus [5] = assay: Anti-inflammatory activity in AOM/DSS-induced BALB/c mouse model inflammatory bowel disease assessed as reduction in tumor load at 5 to 10 mg/kg, ip pretreated with AOM for 7 days further replaced with DSS for 7 days and repeated for 2 times followed by every 2 days compound treatment for […] starting from day 50 and measured once a week; type: functional, organism-based; settings: dose 5-10 mg/kg, time 21.0 day
HT-29 [6] = assay: Induction of autophagic flux in human HT-29 cells assessed as increase in LC3I to LC3II conversion preincubated with chloroquine for 1 hr followed by compound addition and measured after 24 hrs by Western blot analysis; type: functional, cell-based
HT-29 [7] = assay: Induction of autophagic flux in human HT-29 cells assessed as increase in LC3 protein expression preincubated with chloroquine for 1 hr followed by compound addition and measured after 24 hrs by Western blot analysis; type: functional, cell-based
HCT-116 [8] = assay: Induction of apoptosis in human HCT-116 cells assessed as viable cells at 5 uM preincubated with Z-VAD-FMK for 1 hr followed by compound addition and measured after 24 hrs by Annexin V-FITC/PI staining based flow cytometric analysis (reference value: 85.5 %); type: functional; settings: read-out: Activity
HT-29 [9] = assay: Induction of apoptosis in human HT-29 cells assessed as early apoptotic cells at 5 uM incubated for 24 hrs by Annexin V-FITC/PI staining based flow cytometric analysis (reference value: 5.29 %); type: functional
HT-29 [10] = assay: Induction of cell cycle arrest in human HT-29 cells assessed as accumulation of cells at G0/G1 phase at 1 uM by RNase/PI staining based flow cytometry analysis (reference value: 50.73 %); type: functional
[11] = Cmax in Sprague-Dawley rat at 10 mg/kg, ip measured for 240 mins by HPLC-MS/MS analysis; type: ADME, organism-based; design: time 240 min, dose 10 mg/kg, route ip; settings: in vivo
HCT-116 [12] = assay: Induction of apoptosis in human HCT-116 cells assessed as necrotic cells at 5 uM incubated for 24 hrs by Annexin V-FITC/PI staining based flow cytometric analysis (reference value: 1.1 %); type: functional
HCT-116 [13] = assay: Induction of apoptosis in human HCT-116 cells assessed as necrotic cells at 0.5 uM incubated for 24 hrs by Annexin V-FITC/PI staining based flow cytometric analysis (reference value: 1.1 %); type: functional
HT-29 [14] = assay: Induction of apoptosis in human HT-29 cells assessed as inhibition of caspase 9 protein expression measured for 24 hrs by Western blot analysis; type: functional, cell-based; settings: dose 0-10 µM
HCT-116 [15] = assay: Antitumor activity against human HCT-116 cells xenografted in athymic nude BALB/c mouse assessed as reduction in tumor volume at 5 to 15 mg/kg, ip administered every other day and measured every other day for 16 days; type: functional, organism-based; settings: dose 5-15 mg/kg, time 16.0 day
HCT-116 [16] = assay: Induction of apoptosis in human HCT-116 cells assessed as viable cells at 0.5 uM incubated for 24 hrs by Annexin V-FITC/PI staining based flow cytometric analysis (reference value: 88.8%); type: functional; settings: read-out: Activity
HCT-116 [17] = assay: Induction of cell cycle arrest in human HCT-116 cells assessed as decrease in CDK2 protein expression upto 10 uM incubated for 24 hrs by Western blot analysis; type: functional, cell-based
HT-29 [18] = assay: Induction of apoptosis in human HT-29 cells assessed as early apoptotic cells at 1 uM incubated for 24 hrs by Annexin V-FITC/PI staining based flow cytometric analysis (reference value: 5.29 %); type: functional
HCT-116 [19] = assay: Induction of apoptosis in human HCT-116 cells assessed as late apoptotic cells at 0.5 uM incubated for 24 hrs by Annexin V-FITC/PI staining based flow cytometric analysis (reference value: 2.9 %); type: functional
HT-29 [20] = assay: Induction of apoptosis in human HT-29 cells assessed as necrotic cells at 0.5 uM incubated for 24 hrs by Annexin V-FITC/PI staining based flow cytometric analysis (reference value: 0.14 %); type: functional
[21] = target: T1, Nuclear factor NF-kappa-B complex (Homo sapiens); assay: Inhibition of TNF-alpha induced NFkappaB activation in human HCT-116 cells assessed as inhibition of IkappaBalpha degradation at 1 to 10 uM pretreated for 24 hrs followed by TNFalpha stimulation for 10 mins by Western blot analysis; type: cell-based; settings: dose 1-10 µM, time 1450.0 min
HCT-116 [22] = assay: Induction of autophagic flux in human HCT-116 cells assessed as increase in LC3I to LC3II conversion preincubated with 3-methyladenine for 1 hr followed by compound addition and measured after 24 hrs by Western blot analysis; type: functional, cell-based
RKO = assay: Cytotoxicity against human RKO cells assessed as decrease in cell viability incubated for 48 hrs by SRB assay; type: functional, cell-based
HT-29 [23] = assay: Cytotoxicity against human HT-29 cells assessed as inhibition of cell growth by SRB assay; type: functional, cell-based; settings: time 24-48 hrs, TDE = time-dependent effect
HT-29 [24] = assay: Antitumor activity against human HT-29 cells xenografted in athymic nude BALB/c mouse assessed as induction of apoptosis by measuring increase in cleaved caspase 3 expression in tumor at 15 mg/kg, ip administered every other day and measured after 14 days by immunohistochemistry analysis; type: functional, organism-based; settings: time 14.0 day
HCT-116 [25] = assay: Induction of autophagy in human HCT-116 cells assessed as increase in autophagic vesicles at 1 to 10 uM incubated for 24 hrs MDC staining-based fluorescence microscopy; type: functional, cell-based; settings: dose 1-10 µM
HCT-116 [26] = assay: Induction of cell cycle arrest in human HCT-116 cells assessed as accumulation of cells at G0/G1 phase at 1 uM by RNase/PI staining based flow cytometry analysis (reference value: 33.08 %); type: functional
HCT-116 [27] = assay: Induction of cell cycle arrest in human HCT-116 cells assessed as accumulation of cells at S phase at 5 uM by RNase/PI staining based flow cytometry analysis (reference value: 43.77 %); type: functional
[28] = Toxicity in athymic nude BALB/c mouse xenografted with human HCT-116 cells assessed as pathological changes in heart at 5 to 15 mg/kg, ip administered every other day and measured after 14 days by hematoxylin and eosin staining-based microscopic analysis; type: organism-based; settings: in vivo, 336 h, dose 5-15 mg/kg, time 14 day
HT-29 [29] = assay: Induction of apoptosis in human HT-29 cells assessed as viable cells at 10 uM incubated for 24 hrs by Annexin V-FITC/PI staining based flow cytometric analysis (reference value: 93 %); type: functional; settings: read-out: Activity

T1 sequence (P19838 whole entry, looked up): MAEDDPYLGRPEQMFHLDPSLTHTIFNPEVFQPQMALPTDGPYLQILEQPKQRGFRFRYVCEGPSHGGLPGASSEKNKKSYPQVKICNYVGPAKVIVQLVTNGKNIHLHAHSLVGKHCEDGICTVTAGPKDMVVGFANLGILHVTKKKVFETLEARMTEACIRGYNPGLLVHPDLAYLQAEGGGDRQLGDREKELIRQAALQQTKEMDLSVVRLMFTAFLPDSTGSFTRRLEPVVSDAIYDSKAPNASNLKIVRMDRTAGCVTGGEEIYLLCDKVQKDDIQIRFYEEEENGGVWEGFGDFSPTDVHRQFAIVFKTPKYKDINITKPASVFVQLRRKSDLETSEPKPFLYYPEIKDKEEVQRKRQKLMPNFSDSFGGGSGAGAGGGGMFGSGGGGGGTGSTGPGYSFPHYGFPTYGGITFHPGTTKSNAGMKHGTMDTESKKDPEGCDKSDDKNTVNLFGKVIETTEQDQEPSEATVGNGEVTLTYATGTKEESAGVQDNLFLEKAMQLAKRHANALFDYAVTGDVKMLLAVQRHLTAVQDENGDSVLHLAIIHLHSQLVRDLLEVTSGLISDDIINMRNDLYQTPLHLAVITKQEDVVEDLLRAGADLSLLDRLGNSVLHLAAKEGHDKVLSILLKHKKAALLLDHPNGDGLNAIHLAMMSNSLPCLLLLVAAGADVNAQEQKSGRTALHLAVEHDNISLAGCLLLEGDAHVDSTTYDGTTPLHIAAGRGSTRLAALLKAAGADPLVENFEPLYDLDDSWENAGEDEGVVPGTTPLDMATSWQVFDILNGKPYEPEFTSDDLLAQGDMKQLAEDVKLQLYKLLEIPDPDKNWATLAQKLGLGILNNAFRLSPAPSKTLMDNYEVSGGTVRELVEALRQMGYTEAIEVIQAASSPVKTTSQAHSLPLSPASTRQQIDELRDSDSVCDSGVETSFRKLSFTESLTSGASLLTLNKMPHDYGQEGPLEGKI
T1 sequence (Q00653 whole entry, looked up): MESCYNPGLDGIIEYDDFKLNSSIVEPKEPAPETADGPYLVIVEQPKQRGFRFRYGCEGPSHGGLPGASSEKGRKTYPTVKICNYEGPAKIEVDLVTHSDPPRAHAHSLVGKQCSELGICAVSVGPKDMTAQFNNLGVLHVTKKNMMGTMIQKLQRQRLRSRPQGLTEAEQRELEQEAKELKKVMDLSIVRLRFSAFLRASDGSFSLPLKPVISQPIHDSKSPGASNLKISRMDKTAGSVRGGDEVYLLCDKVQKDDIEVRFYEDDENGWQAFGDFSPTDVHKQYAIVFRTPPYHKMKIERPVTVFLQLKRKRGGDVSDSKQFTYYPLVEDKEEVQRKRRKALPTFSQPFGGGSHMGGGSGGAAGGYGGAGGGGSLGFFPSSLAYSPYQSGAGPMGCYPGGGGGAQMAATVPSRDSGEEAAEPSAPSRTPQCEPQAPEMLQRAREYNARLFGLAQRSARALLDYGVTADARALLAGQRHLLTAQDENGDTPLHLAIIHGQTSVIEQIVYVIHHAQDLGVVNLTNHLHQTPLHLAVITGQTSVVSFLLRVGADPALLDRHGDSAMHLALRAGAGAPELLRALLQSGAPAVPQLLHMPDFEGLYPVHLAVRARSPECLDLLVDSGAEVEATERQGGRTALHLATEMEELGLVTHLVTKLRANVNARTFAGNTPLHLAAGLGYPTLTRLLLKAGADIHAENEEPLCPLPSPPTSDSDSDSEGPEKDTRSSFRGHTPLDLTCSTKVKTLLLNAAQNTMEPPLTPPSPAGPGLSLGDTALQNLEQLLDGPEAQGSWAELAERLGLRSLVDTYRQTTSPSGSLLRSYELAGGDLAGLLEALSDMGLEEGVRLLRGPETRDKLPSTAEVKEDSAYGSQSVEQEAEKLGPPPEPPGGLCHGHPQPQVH
T1 sequence (Q04206 whole entry, looked up): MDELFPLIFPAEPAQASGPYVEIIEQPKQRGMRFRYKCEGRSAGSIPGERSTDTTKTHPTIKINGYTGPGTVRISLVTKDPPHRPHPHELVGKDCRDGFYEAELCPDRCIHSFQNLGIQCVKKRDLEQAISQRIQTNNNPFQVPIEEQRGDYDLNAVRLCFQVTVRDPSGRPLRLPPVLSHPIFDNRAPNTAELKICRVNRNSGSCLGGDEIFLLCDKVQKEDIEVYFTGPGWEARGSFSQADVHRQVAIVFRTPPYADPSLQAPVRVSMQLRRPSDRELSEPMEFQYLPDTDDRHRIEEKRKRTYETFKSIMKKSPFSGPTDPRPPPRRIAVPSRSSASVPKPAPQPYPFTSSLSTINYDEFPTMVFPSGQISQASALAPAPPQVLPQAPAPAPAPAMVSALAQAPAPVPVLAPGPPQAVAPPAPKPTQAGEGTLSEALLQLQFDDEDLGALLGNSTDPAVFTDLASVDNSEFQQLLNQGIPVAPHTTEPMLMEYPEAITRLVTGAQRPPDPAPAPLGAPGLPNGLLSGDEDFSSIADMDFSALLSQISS

In the case of `C[C@@H]1CC[C@H]2[C@H](C(=O)c3c(O)c([C@@]4(O)CC[C@@H](O)[C@H]5O[C@H]54)cn(O)c3=O)[C@H](C)C=C[C@@H]2C1`, the Activity (HT-29 [1]) is reported as 17.2%, the inhibition [2] is reported as “Active” and the Activity (HCT-116 [3]) is reported as 12.3%. For the same compound, the Activity (Mus musculus [4]) was “Active”, the Activity (Mus musculus [5]) was “Active” and the Activity (HT-29 [6]) was “Active”. The Activity (HT-29 [7]) was “Active”, the viability at 5 µM (HCT-116 [8]) was 29.5% and the Activity (HT-29 [9]) was 56.4%. For the same compound, the Activity (HT-29 [10]) was 69.17%, the Cmax [11] was 4590 ng/mL and the Activity (HCT-116 [12]) was 2.9%. The Activity (HCT-116 [13]) was 2.54%, the Activity (HT-29 [14]) was “Dose-Dependent Effect” and the Activity (HCT-116 [15]) was “Active”. The viability at 0.5 µM (HCT-116 [16]) was 51.7%, the Activity (HCT-116 [17]) was “Active” and the Activity (HT-29 [18]) was 47.4%. The Activity (HCT-116 [19]) was 32.8%, the Activity (HT-29 [20]) was 0.2% and the inhibition [21] was “Active”. For the same compound, the Activity (HCT-116 [22]) was “Active”, the IC50 (RKO) was 570 nM and the Activity (HT-29 [23]) was “Tde”. The Activity (HT-29 [24]) was “Active”, the Activity (HCT-116 [25]) was “Active” and the Activity (HCT-116 [26]) was 36.23%. For the same compound, the Activity (HCT-116 [27]) was 40.03%, the Activity [28] was “Non-Toxic” and the viability at 10 µM (HT-29 [29]) was 36.8%.
